Test results from PubChem BioAssay AID1963955 (Xavier Lab, Infectious Disease and Microbiome Program, …, 2024).
Active and inactive are the calls of the source.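 How the source made its calls: active means statistically significant rise in LC3 puncta area per cell versus the same autophagy inducer given alone; inactive means the rest.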

Tests used:
[1] = test system: mouse BMDM GFP-LC3 puncta imaging, 4 h; experiment: autophagy inducers by MAP1LC3 foci formation, imaging, murine bone marrow-derived macrophages, green fluorescent protein-tagged MAP1LC3 (AID 1963955)
[2] = as above; conditions: mouse BMDM GFP-LC3 puncta imaging, 4 h, hits give high values

CCC(C)(C)C(=O)C(=O)N1CCCC[C@H]1C(=O)N[C@H](CCc1ccc(OC)cc1)C(=O)N1[C@@H]2CC[C@H]1CC(Nc1nc(NCCc3sc(N)nc3C)nc(N3CCn4ncnc4C3)n1)C2 (stereo not given in full)
EC50 ([1]; no co-treatment, at 20 µM): 44.6 µM | EC50 ([1]; no co-treatment, at 40 µM): 44.6 µM | EC50 ([1]; with HBSS, at 20 µM): 22.7 µM | EC50 ([1]; with HBSS, at 40 µM): 22.7 µM

CS(C)=O
LC3 puncta area per cell ([2]; no co-treatment): 7.38 um2/cell (inactive) | LC3 puncta area per cell ([2]; with HBSS): 9.2 um2/cell

CCC(C)(C)C(=O)C(=O)N1CCCC[C@H]1C(=O)N[C@H](CCc1ccc(OC)cc1)C(=O)N1[C@@H]2CC[C@H]1CC(Nc1nc(NCCc3ccccc3)nc(N3CCn4ncnc4C3)n1)C2 (stereo not given in full)
LC3 puncta area per cell ([2]; at 20 µM, no co-treatment): 5.15 um2/cell (inactive) | LC3 puncta area per cell ([2]; at 20 µM, with HBSS): 10.8 um2/cell (inactive) | LC3 puncta area per cell ([2]; at 40 µM, no co-treatment): 5.34 um2/cell (inactive) | LC3 puncta area per cell ([2]; at 40 µM, with HBSS): 11.1 um2/cell
